Reference: US10344060B2 (priority 2013, dated 2019)
Several values for one entry are separate records, joined by “and”; a condition that tells them apart may be missing. Identical values can stand only once. Like-named read-outs stand apart in the source and are kept apart here.

Legend:
hNav1.7 = hNav1.7 (Homo sapiens, UniProt Q15858); assay: cell-based; assay type: cell-based; conditions: read-out: PX hNav1.7 Tonic IC50
hNav1.4 = hNav1.4 (Homo sapiens, UniProt P35499); assay: cell-based; assay type: cell-based; conditions: for IC50: PatchXpress, tonic block, read-out: PX hNav1.4 Tonic IC50; for Nav1.4/Nav1.7: ratio of PX tonic IC50 values
hNav1.5 = hNav1.5 (Homo sapiens, UniProt Q14524); assay: cell-based; conditions: ratio of PX tonic IC50 values
hNav1.6 = hNav1.6 (Homo sapiens, UniProt Q9UQD0); assay: cell-based; assay type: cell-based; conditions: Table 15; for Nav1.6/Nav1.7: ratio of PX tonic IC50 values; for IC50: read-out: PX hNav1.6 Tonic IC50
[1] = tested on: TTX-sensitive Nav channels in mouse DRG neuron; conditions: for block of TTX-sensitive Nav current: C57 Black 6 mouse DRG neuron

hNav1.6, sequence (Q9UQD0 whole entry): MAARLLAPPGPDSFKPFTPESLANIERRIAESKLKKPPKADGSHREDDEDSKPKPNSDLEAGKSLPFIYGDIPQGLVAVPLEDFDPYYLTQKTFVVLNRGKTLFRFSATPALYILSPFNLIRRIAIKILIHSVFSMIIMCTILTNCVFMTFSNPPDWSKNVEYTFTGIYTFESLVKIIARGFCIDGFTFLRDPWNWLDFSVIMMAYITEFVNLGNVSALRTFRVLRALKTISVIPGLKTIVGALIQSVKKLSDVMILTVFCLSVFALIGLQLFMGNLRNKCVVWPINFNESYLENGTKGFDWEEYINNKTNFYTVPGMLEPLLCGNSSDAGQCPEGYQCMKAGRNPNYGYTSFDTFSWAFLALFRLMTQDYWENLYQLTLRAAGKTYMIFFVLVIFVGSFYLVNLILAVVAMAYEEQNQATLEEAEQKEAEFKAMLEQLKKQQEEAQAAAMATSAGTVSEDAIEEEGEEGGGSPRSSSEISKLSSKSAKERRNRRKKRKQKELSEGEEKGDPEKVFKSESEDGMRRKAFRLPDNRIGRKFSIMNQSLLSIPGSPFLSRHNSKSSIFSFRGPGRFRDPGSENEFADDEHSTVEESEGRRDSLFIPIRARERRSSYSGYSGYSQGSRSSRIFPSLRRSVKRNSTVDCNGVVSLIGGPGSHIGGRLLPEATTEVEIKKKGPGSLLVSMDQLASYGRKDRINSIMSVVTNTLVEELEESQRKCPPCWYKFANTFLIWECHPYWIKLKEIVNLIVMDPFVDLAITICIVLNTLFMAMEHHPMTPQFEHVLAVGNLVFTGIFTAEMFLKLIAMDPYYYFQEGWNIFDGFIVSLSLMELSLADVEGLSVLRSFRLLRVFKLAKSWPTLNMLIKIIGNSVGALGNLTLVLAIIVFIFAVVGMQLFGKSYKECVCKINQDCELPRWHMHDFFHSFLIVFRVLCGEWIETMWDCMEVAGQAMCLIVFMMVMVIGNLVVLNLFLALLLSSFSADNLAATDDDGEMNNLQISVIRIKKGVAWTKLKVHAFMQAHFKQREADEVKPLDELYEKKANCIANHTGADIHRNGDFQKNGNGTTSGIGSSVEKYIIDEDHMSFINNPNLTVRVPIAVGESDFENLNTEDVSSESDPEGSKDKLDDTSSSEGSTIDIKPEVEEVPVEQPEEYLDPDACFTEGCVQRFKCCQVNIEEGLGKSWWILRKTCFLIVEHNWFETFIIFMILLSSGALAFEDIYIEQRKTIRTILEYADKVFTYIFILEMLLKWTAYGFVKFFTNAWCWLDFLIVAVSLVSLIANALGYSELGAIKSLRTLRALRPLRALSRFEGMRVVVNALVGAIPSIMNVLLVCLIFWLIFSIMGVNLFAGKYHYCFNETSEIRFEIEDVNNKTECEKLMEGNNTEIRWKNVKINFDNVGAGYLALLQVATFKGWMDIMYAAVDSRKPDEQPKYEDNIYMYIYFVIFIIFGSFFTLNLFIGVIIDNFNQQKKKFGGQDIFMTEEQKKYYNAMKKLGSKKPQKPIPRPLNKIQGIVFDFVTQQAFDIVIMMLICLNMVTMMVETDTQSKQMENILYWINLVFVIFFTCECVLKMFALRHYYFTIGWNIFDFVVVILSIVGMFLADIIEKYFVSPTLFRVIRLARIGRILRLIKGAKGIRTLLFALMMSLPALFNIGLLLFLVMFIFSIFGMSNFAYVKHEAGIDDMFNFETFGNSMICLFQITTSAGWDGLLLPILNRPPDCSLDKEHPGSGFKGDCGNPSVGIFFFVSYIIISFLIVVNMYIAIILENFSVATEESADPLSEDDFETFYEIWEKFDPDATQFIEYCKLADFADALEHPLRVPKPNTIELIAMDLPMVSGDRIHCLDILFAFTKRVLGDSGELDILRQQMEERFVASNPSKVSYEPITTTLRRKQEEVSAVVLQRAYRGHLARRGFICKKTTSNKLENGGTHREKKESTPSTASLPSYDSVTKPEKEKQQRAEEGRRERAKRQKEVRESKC
hNav1.5, sequence (Q14524 whole entry): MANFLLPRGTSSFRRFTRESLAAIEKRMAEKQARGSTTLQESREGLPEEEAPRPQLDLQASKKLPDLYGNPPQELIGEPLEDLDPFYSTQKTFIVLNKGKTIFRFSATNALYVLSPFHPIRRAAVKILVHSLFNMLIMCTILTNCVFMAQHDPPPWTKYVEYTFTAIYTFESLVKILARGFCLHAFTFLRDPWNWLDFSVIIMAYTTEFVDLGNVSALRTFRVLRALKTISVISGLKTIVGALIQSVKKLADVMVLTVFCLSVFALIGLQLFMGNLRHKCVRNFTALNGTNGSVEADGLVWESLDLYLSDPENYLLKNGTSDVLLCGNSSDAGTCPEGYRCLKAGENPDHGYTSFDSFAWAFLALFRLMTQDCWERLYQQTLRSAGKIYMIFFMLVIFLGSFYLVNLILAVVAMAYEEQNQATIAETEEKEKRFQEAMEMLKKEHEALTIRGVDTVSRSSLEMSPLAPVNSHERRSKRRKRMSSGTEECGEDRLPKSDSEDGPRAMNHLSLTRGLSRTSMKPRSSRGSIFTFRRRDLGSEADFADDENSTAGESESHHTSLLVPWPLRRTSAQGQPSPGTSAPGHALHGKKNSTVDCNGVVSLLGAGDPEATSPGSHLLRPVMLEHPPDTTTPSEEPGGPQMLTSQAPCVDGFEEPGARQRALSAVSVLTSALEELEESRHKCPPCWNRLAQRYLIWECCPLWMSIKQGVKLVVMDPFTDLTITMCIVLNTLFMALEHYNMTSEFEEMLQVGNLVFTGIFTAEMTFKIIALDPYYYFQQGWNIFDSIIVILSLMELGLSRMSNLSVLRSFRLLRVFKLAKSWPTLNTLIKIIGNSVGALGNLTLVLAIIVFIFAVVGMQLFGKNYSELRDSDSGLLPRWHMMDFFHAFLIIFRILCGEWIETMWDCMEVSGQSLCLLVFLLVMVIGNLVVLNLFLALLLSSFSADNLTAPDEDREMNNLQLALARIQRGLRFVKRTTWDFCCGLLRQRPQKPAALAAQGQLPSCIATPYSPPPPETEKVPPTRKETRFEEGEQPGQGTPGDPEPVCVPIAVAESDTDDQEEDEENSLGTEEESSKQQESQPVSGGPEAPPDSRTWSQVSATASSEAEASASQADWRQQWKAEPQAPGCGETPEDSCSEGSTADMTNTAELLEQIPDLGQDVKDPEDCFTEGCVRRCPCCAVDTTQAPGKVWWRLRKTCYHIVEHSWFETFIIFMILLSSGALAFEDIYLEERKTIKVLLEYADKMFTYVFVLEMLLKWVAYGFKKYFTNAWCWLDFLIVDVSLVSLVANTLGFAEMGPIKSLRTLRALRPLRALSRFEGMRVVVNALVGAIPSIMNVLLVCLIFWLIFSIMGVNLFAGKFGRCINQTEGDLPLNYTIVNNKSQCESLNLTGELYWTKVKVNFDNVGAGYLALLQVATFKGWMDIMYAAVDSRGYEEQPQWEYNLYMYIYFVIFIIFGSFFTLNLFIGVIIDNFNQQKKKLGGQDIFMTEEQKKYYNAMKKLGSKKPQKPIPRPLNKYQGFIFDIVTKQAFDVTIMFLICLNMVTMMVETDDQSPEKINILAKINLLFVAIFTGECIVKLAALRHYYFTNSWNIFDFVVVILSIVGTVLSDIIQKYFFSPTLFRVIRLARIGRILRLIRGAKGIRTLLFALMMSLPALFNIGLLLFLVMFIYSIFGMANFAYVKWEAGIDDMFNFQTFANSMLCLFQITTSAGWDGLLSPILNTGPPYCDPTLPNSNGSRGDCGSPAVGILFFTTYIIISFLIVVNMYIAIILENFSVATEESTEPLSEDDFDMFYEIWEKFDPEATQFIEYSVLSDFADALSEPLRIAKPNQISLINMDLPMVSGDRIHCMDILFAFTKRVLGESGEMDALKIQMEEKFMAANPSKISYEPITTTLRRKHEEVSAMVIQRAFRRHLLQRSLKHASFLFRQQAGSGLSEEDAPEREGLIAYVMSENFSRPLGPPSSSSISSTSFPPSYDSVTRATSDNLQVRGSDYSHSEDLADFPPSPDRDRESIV

Compound: C#CC[C@H](N)C(=O)NCCCC[C@@H]1NC(=O)[C@H](CCCNC(=N)N)NC(=O)[C@H](CCCCN)NC(=O)[C@H](CO)NC(=O)[C@H](CC(=O)O)NC(=O)[C@@H]2CSSC[C@@H]3NC(=O)[C@H](CCCNC(=N)N)NC(=O)[C@H](CC(C)C)NC(=O)CNC(=O)[C@H](CCC(=O)O)NC(=O)[C@H](CSSC[C@H](NC(=O)[C@H](Cc4ccc(O)cc4)NC(=O)[C@@H](N)CC#N)C(=O)N[C@@H](CCC(N)=O)C(=O)N[C@@H](CCCCN)C(=O)N[C@@H](Cc4c[nH]c5ccccc45)C(=O)N[C@@H](CCCC)C(=O)N[C@@H](Cc4c[nH]c5ccccc45)C(=O)N[C@@H]([C@@H](C)O)C(=O)N2)NC(=O)[C@H](CSSC[C@@H](C(=O)N[C@@H](CCCNC(=N)N)C(=O)N[C@@H](CCCCN)C(=O)N[C@@H](CCC(=O)O)C(=O)N[C@H](C(N)=O)[C@@H](C)CC)NC(=O)[C@H](Cc2c[nH]c4ccccc24)NC(=O)[C@H](CC(C)C)NC(=O)[C@H](CCCCN)NC3=O)NC1=O [compound 392]
- IC50 (hNav1.7; Table 15): 1.59 nM
- IC50 (hNav1.4; Table 12): 110 nM
- Nav1.5/Nav1.7 (hNav1.5; Table 12): 659 and 615 and 841
- Nav1.6/Nav1.7 (hNav1.6): 157
- IC50 (hNav1.6): 250 nM
- IC50 [1]: 46.6 nM
- fold less potent than JzTx-V in inhibition of TTX-sensitive current [1]: about 3 fold

Compound: CCCC[C@@H]1NC(=O)[C@H](Cc2c[nH]c3ccccc23)NC(=O)[C@H](CCCCN)NC(=O)[C@H](CCC(N)=O)NC(=O)[C@@H](NC(=O)[C@H](Cc2ccc(O)cc2)NC(=O)[C@@H](N)CC#N)CSSC[C@@H]2NC(=O)[C@@H]3CSSC[C@@H](C(=O)N[C@@H](CCCNC(=N)N)C(=O)N[C@@H](CCCCN)C(=O)N[C@@H](CCC(=O)O)C(=O)N[C@H](C(N)=O)[C@@H](C)CC)NC(=O)[C@H](Cc4c[nH]c5ccccc45)NC(=O)[C@H](CC(C)C)NC(=O)[C@H](CCCCN)NC(=O)[C@H](CSSC[C@H](NC(=O)[C@H]([C@@H](C)O)NC(=O)[C@H](Cc4c[nH]c5ccccc45)NC1=O)C(=O)N[C@@H](CC(=O)O)C(=O)N[C@@H](CO)C(=O)N[C@@H](CCCCN)C(=O)N[C@@H](CCCNC(=N)N)C(=O)N[C@@H](C)C(=O)N3)NC(=O)[C@H](CCCNC(=N)N)NC(=O)[C@H](CC(C)C)NC(=O)CNC(=O)[C@H](Cc1cn(CCCOCCOCCOCCOCCOCCOCCOCCOCCOCCOCCN)nn1)NC2=O [compound 443]
- Nav1.4/Nav1.7 (hNav1.4; Table 13): 31
- Nav1.5/Nav1.7 (hNav1.5; Table 13): 236
- IC50 [1]: 35.2 nM
- block of TTX-sensitive Nav current ([1]; 300 nM): over 75%

Compound: C#CC[C@H](N)C(=O)N[C@@H](Cc1ccc(O)cc1)C(=O)N[C@H]1CSSC[C@@H]2NC(=O)[C@@H]3CSSC[C@@H](C(=O)N[C@@H](CCCNC(=N)N)C(=O)N[C@@H](CCCCN)C(=O)N[C@@H](CCC(=O)O)C(=O)N[C@H](C(N)=O)[C@@H](C)CC)NC(=O)[C@H](Cc4c[nH]c5ccccc45)NC(=O)[C@H](CC(C)C)NC(=O)[C@H](CCCCN)NC(=O)[C@H](CSSC[C@H](NC(=O)[C@H]([C@@H](C)O)NC(=O)[C@H](Cc4c[nH]c5ccccc45)NC(=O)[C@H](CCCC)NC(=O)[C@H](Cc4c[nH]c5ccccc45)NC(=O)[C@H](CCCCN)NC(=O)[C@H](CCC(N)=O)NC1=O)C(=O)N[C@@H](CC(=O)O)C(=O)N[C@@H](CO)C(=O)N[C@@H](CCCCN)C(=O)N[C@@H](CCCNC(=N)N)C(=O)N[C@@H](CCC(=O)O)C(=O)N3)NC(=O)[C@H](CCCNC(=N)N)NC(=O)[C@H](CC(C)C)NC(=O)CNC(=O)[C@H](CCC(=O)O)NC2=O [compound 717]
- IC50 (hNav1.7; Table 12, PatchXpress, tonic block): 0.975 nM
- IC50 (hNav1.4; Table 12): 325 nM
- Nav1.4/Nav1.7 (hNav1.4; Table 12): 333
- Nav1.6/Nav1.7 (hNav1.6): 2558
- IC50 (hNav1.6): 2490 nM
- IC50 [1]: 99.8 nM
- block of TTX-sensitive Nav current ([1]; 1000 nM): approximately 90%
